Source: the NIST ThermoML archive (doi:10.1016/j.jct.2015.05.011)
± gives the expanded uncertainty stated by the source.

Columns and labels:
[1] = refractive index (Na D-line) (dimensionless); details: 298.15 K; 100 kPa; Liquid; Standard Abbe refractometry
[2] = Liquid; for viscosity: Falling or rolling sphere viscometry; for mass density: Vibrating tube method
[3] = refractive index (Na D-line) (dimensionless); xn = mol fraction of the nth substance listed; details: 298.15 K; 100 kPa; Liquid; Standard Abbe refractometry; x1 = 1
[4] = xn = mol fraction of the nth substance listed; details: 298.15 K; 100 kPa; Liquid; Falling or rolling sphere viscometry; x1 = 1

## O [water]
[1]
  refractive index: 1.33252 ± 0.00035
[2]; 298.15 K, 100 kPa
  viscosity: 0.89 ± 0.02 mPa·s

## O [water] + CCn1cc[n+](C)c1.N#C[C-](C#N)C#N
[3]
  refractive index: 1.33252 ± 0.00035
[4]
  viscosity: 0.89 ± 0.02 mPa·s

## CCn1cc[n+](C)c1.N#C[C-](C#N)C#N [1-ethyl-3-methyl-1H-imidazolium tricyanomethanide]
[1]
  refractive index: 1.51227 ± 0.00036
[2]; 288.15 K, 101.33 kPa
  viscosity: 19.9 ± 0.43 mPa·s
  mass density: 1088.49 ± 0.15 kg/m3
[2]; 293.15 K, 101.33 kPa
  viscosity: 16.54 ± 0.35 mPa·s
  mass density: 1084.93 ± 0.15 kg/m3
[2]; 298.15 K, 101.33 kPa
  viscosity: 14 ± 0.3 mPa·s
  mass density: 1081.38 ± 0.15 kg/m3
[2]; 303.15 K, 101.33 kPa
  viscosity: 11.99 ± 0.26 mPa·s
  mass density: 1077.84 ± 0.15 kg/m3
[2]; 308.15 K, 101.33 kPa
  viscosity: 10.32 ± 0.22 mPa·s
  mass density: 1074.33 ± 0.15 kg/m3
[2]; 313.15 K, 101.33 kPa
  viscosity: 8.9 ± 0.19 mPa·s
  mass density: 1070.83 ± 0.15 kg/m3
[2]; 318.15 K, 101.33 kPa
  viscosity: 7.82 ± 0.17 mPa·s
  mass density: 1067.35 ± 0.14 kg/m3
